The record followed here is BindingDB's records for doi:10.1016/s0960-894x(98)00091-2 (Eli Lilly, 1999).

In the experiment the target is NMDA receptor (Rattus norvegicus). Put plainly: Binding affinity against Ionotropic glutamate receptor using [3H]- CGS-19755 displacement from rat forebrain preparations.

Each structure is given as a SMILES string.

`N[C@@H](C[C@H](CCC(c1ccccc1)c1ccccc1)C(=O)O)C(=O)O` [(2S,4S)-2-Amino-4-(3,3-diphenyl-propyl)-pentanedioic acid] displayed an IC50 of 13.2 µM.

As a reminder, the IC50 is the midpoint of a concentration-inhibition curve.
